Patent US11827624B2, “Covalent immune recruiter compounds for immune cell recognition and associated uses” (McMaster University, priority 2020, dated 2023)

How the values were obtained:
[1] = system: PSMA+HEK cells; test: CD16α activation assay with pan human IgG as source of sAb; format: cell-based; details: pan IgG 230 μM, ~10 nM anti-DNP IgG
Experimental: Preparation of antibody-CIR/ARM stocks were mixed overnight prior to addition to the ADCC plate. In the case of mmAb and mAb, incubation was carried out at 600 nM antibody and 1.2 μM CIR or ARM. In the case of IgG from serum, incubation was completed at 230 μM antibody and 8.7 μM CIR or ARM. In all cases, DMSO was kept close to 1%. After the overnight incubation, a dilution series was completed on the antibody-CIR/ARM stocks in RPMI (1% DMSO). Target cells were seeded at a density of 2.5×10^4 cells per well in opaque 96 well flat-bottom plates (Corning Costar, 3917) in complete media. Sixteen hours after seeding, cells were washed gently with 100 μL of neat RPMI. To the cells, 25 μL of RPMI supplemented with 4% ultra-low IgG FBS was added followed by 25 μL of antibody+/−CIR/ARM conditions described above. After a 30-minute incubation, 25 μL of supplemented RPMI containing 7.5×10^4 Jurkat effector cells expressing human FcgRIlla (CD16) were added to each well. The plates were then incubated for 6 additional hours. 75 μL of Bio-Glo Luciferase Assay Reagent was added to each well, and luminescence was quantified using the SpectraMax i3 plate reader.
Depleted serum IgG is derived from pan serum human IgG passed through DNP coated beads to remove endogenous anti-DNP IgG. […]

[2] = system: PSMA+HEK cells; test: Two-colour flow cytometry ADCP (CD64) assay with mmAb on PSMA+HEK cells; format: cell-based, human
Excerpt: ADCP flow cytometry experiments were run on a BD LSRII Flow Cytometer. The human IgG isotype control used was purchased from Jackson ImmunoResearch (009-000-003). The human IgG1 monoclonal anti-DNP antibody (mAb) was purchased from acrobiosystems (DNP-M2). PSMA expression was confirmed with an anti-PSMA antibody Alexa 647 conjugate (Novus Biologicals, Catalog #FAB4234R). For PSMA competition controls, PMPA was purchased from Sigma (SML1612). Hek-293T (PSMA+/−) cell lines were generously given by Dr. Cyril Barinka (Institute of Biotechnology CAS, Czech Republic). U937 cells were generously given by Dr. John Valliant (McMaster University, Canada). LNCaP cells were generously given by Dr. Karen Mossman (McMaster University, Canada). IFN-γ was purchased from Fischer Scientific (PHC4031). Ultra low IgG FBS was purchased from Fischer Scientific (A3381901). RPMI-1640 was purchased as a powder from Fischer Scientific (31800089) and resuspended. DMEM was purchased as a powder from Fischer Scientific (12800082) and resuspended. […]
For preparation of effector monocytes, 24 hours prior to inducing phagocytosis U937 monocytes were seeded at 500,000 cells/mL and activated with IFN-γ ([…]). After incubation, these cells were then counted and washed twice with serum free assay media (neat RPMI). […] These cells were then counted and washed twice with serum free assay media (neat RPMI). […]

With `O=C(O)CC[C@H](NC(=O)N[C@@H](CCCCNC(=O)NCCOCCOCCOCCOCCOCCOCCOCCOC(=O)n1cnc(CCNC(=O)CNc2ccc([N+](=O)[O-])cc2[N+](=O)[O-])c1)C(=O)O)C(=O)O` [CIR 3] the CD16α activation [1] was “mediated efficient CD16α activation” and the “CD64 based target immune recognition (phagocytosis)” value [2] was “only provided a functional enhancement relative to ARM 11 at low antibody concentrations”.
